# Results reported in patent US20130338216A1, “DEUTERATED AND/OR FLUORINATED TAXANE DERIVATIVES” (NEKTAR THERAPEUTICS, priority 2010, published 2013).
# How the values were obtained:
# [1] = system: boiled liver microsomes; assay: Stability in boiled liver microsomes (control incubation); type: in vitro ADME
# Description: (§1) Methods: Previously frozen human liver microsomes (mixed gender pool; Xenotech H0630) were thawed in a 37° C. water bath and put on ice immediately after thawing. […] The incubation mixture (500 μL) was prepared in individual silanized tube (CTS-13100) for each time point and for each test article. Incubation was terminated by adding 500 μL cold water:acetonitrile 1:1 (v/v) spiked with 400 nM paclitaxel (internal standard) to the tube. […] The slope of the linear regression from log percentage remaining versus incubation time relationships (−k) was used in the calculation of intrinsic clearance: Intrinsic clearance (CLint)=k*(μL incubation/mg of microsomal protein).
# [2] = system: cytochrome P450 CYP3A4 and CYP3A5; conditions: by cytochrome P450 CYP3A4 and CYP3A5 isoenzymes; cited from earlier work
# [3] = In vitro metabolic stability in human liver microsomes; type: in vitro ADME; conditions: both sexes, pH 7.4; human liver microsomes 0.5 mg/mL, 1 μM test article, up to 30 minutes, 37° C.; read-out: intrinsic clearance rate
# Description: as §1
# [4] = system: A549 cell line; assay: In vitro cytotoxicity, CellTiter-Glo cell viability, A549; type: cell-based; conditions: Homo sapiens, 72 hours of exposure
# Description: (§2) Experimental Procedure: NCI-H460, A549, and MDA-MB-231 cell lines were obtained from ATCC and cultured in RPMI-1640 medium supplemented with 2 mM L-glutamine dipeptide and 10% fetal bovine serum (FBS). For assays, cells were seeded in 96-well plates at 5,000 cells per well in RMPI-1640 medium supplemented with 2 mM L-glutamine dipeptide and 10% FBS. All cells were seeded in a total volume of 50 μL, and placed in a 37° C. humidified 5% CO2 cell culture incubator overnight. […] Cell viability was assessed using the CellTiter-Glo Luminescent Cell Viability Assay (Promega) according to the manufacturer's directions. Briefly, plates were removed from the incubator and placed on the bench at room temperature for 30 minutes. Plates were not stacked. Following the 30 minute incubation period at room temperature, 100 μL of CellTiter-Glo reagent were added to each well on the plate and mixed for two minutes, followed by a further ten minutes incubation at room temperature. Luminescence was then recorded using a PerkinElmer Microbeta scintillation and luminescence counter (TriLux). At the same time as drug exposure, a CellTiter-Glo assay was carried out on one plate of each cell line to obtain 0 hr counts for the assay. Following a 72 hour exposure to drugs, a CellTiter-Glo assay was performed on all remaining plates.
# [5] = system: MDA-MB-231 cell line; assay: In vitro cytotoxicity, CellTiter-Glo cell viability, MDA-MB-231; type: cell-based; conditions: Homo sapiens, 72 hours of exposure
# Description: as §2
# [6] = system: NCI-H460 cell line; assay: In vitro cytotoxicity, CellTiter-Glo cell viability, NCI-H460; type: cell-based; conditions: Homo sapiens, 72 hours of exposure
# Description: as §2
# [7] = Maximum tolerated dose (MTD) study in athymic mice; conditions: for MTD at 30 day: female, athymic nu/nu, mouse, in vivo, iv, athymic nu/nu mice
# Description: Mice were observed daily for clinical signs and body weights were recorded on days 1-5, 7, 9, 11, 13, and then biweekly until the end of study. All procedures were conducted in compliance with IACUC requirements. Compound dosing was terminated for any group in which mean weight loss exceeded 20% or >10% of animals died. Moribund animals were euthanized and all animals were euthanized at end of study (day 30).
compound,measurement,setting,value
CO[C@H]1C(=O)[C@]2(C)[C@@H](OC)C[C@H]3OC[C@@]3(OC(C)=O)[C@H]2[C@H](OC(=O)c2ccccc2)[C@]2(O)C[C@H](OC(=O)[C@H](O)[C@@H](NC(=O)OC(C)(C)C)c3ccccc3)C(C)=C1C2(C)C [Cabazitaxel],docetaxel formation after incubation with boiled liver microsomes,[1],not observed
same,stability during incubation with boiled liver microsomes,"[1]; 1 μM, up to 30 minutes",fairly stable
same,extensively metabolized in the liver,[2],> 95%
same,microsomal CLint at 1 μM,[3],410 µL/min/mg
[2H]C([2H])([2H])C(OC(=O)N[C@@H](c1ccccc1)[C@@H](O)C(=O)O[C@H]1C[C@@]2(O)[C@@H](OC(=O)c3ccccc3)C3C(C)(C(=O)[C@H](O)C(=C1C)C2(C)C)[C@@H](O)CC1OC[C@]13OC(C)=O)(C([2H])([2H])[2H])C([2H])([2H])[2H] (stereo partly drawn) [d9-Docetaxel],IC50,[4],1.6 nM
same,IC50,[5],25.2 nM
same,IC50,[6],2.68 nM
same,Treatment-Related Deaths,"[7]; Group 1, 10 mg/kg iv, qwk x 3, N 5",0
same,BW Nadir,"[7]; Group 2, 20 mg/kg iv, qwk x 3",−5.6%
same,Treatment-Related Deaths,"[7]; Group 2, 20 mg/kg iv, qwk x 3, N 5",0
same,BW Nadir,"[7]; Group 3, 40 mg/kg iv, qwk x 3",−21.9%
same,Treatment-Related Deaths,"[7]; Group 3, 40 mg/kg iv, qwk x 3, N 5",0
same,BW Nadir,"[7]; Group 4, 7.5 mg/kg iv, qwk x 3",−10.6%
same,Treatment-Related Deaths,"[7]; Group 4, 7.5 mg/kg iv, qwk x 3 in Table 2, N 5",0
same,BW Nadir,"[7]; Group 5, 15 mg/kg iv, qwk x 3",−12.3%
same,Treatment-Related Deaths,"[7]; Group 5, 15 mg/kg iv, qwk x 3 in Table 2, N 5",0
same,BW Nadir,"[7]; Group 6, 30 mg/kg iv, qwk x 3",−29.6%
same,Mean Day of Death,"[7]; Group 6, 30 mg/kg iv, qwk x 3",11.5
same,Treatment-Related Deaths,"[7]; Group 6, 30 mg/kg iv, qwk x 3 in Table 2, N 5",2
same,MTD at 30 day,"[7]; q3d×3, iv",~15 mg/kg
same,MTD at 30 day,"[7]; qwk×3, iv",~30 mg/kg
"CC(=O)O[C@@]12CO[C@@H]1C[C@H](O)[C@@]1(C)C(=O)[C@H](O)C3=C(C)[C@@H](OC(=O)[C@H](O)[C@@H](NC(=O)OC(C)(C)C)c4ccccc4)C[C@@](O)([C@@H](OC(=O)c4ccccc4)[C@H]21)C3(C)C [Docetaxel, reference compound]",IC50,[4],1.82 nM
same,IC50,[5],35.2 nM
same,IC50,[6],3.52 nM
